US8163732B2, “Tricyclic heteroaryl compounds useful as inhibitors of Janus kinase” (Vertex Pharmaceuticals Incorporated, priority 2005, dated 2012)

How the values were obtained:
JAK-2 = JAK-2 (Homo sapiens, UniProt O60674); test: JAK-2 inhibition assay; format: biochemical
JAK-3 = target: T1, JAK-3 (Homo sapiens, UniProt P52333); test: JAK-3 inhibition assay; format: biochemical
T1 sequence (P52333 1-1124): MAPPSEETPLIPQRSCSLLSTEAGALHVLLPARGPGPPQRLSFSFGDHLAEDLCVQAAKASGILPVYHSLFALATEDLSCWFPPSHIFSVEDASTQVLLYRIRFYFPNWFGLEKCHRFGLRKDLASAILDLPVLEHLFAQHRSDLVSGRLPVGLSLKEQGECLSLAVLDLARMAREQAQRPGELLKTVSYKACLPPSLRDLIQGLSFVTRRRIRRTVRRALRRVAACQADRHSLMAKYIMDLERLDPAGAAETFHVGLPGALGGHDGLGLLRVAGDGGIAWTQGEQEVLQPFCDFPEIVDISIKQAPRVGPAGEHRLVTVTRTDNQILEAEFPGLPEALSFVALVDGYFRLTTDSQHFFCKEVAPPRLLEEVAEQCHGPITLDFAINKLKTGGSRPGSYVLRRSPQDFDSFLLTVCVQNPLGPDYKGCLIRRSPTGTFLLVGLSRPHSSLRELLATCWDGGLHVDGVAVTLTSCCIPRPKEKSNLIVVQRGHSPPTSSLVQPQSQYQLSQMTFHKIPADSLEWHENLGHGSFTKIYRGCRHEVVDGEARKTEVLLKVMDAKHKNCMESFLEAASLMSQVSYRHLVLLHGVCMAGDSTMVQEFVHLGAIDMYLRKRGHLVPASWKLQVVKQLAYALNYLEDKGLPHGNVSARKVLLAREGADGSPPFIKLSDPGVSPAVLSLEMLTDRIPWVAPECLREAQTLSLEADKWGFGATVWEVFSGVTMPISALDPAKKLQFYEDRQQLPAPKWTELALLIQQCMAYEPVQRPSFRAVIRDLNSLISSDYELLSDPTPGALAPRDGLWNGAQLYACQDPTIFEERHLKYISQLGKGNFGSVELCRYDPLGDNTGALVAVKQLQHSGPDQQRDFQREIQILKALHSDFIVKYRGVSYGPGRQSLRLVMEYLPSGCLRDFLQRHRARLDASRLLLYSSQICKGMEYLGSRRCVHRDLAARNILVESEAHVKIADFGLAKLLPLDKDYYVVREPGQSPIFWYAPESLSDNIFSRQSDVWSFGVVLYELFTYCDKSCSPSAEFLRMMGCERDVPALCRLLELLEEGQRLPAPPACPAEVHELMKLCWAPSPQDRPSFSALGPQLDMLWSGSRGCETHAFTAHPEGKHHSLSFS
Description: Compounds were screened for their ability to inhibit JAK using the assay shown below. Reactions were carried out in a kinase buffer containing 100 mM HEPES (pH 7.4), 1 mM DTT, 10 mM MgCl2, 25 mM NaCl, and 0.01% BSA.
Substrate concentrations in the assay were 5 μM ATP (200 μCi/μmole ATP) and 1 μM poly(Glu)4Tyr. Reactions were carried out at 25° C. and 1 nM JAK-3.
To each well of a 96 well polycarbonate plate was added 1.5 μL of a candidate JAK-3 inhibitor along with 50 μL of kinase buffer containing 2 μM poly(Glu)4Tyr and 10 μM ATP. This was then mixed and 50 μL of kinase buffer containing 2 nM JAK-3 enzyme was added to start the reaction. After 20 minutes at room temperature (25° C.), the reaction was stopped with 50 μL of 20% trichloroacetic acid (TCA) that also contained 0.4 mM ATP. The entire contents of each well were then transferred to a 96 well glass fiber filter plate using a TomTek Cell Harvester. After washing, 60 μL of scintillation fluid was added and ^33P incorporation detected on a Perkin Elmer TopCount. After removing the mean background values for all of the data points, the data were fit using Prism software to obtain a Ki value (app).

JAK-2, sequence (O60674 whole entry): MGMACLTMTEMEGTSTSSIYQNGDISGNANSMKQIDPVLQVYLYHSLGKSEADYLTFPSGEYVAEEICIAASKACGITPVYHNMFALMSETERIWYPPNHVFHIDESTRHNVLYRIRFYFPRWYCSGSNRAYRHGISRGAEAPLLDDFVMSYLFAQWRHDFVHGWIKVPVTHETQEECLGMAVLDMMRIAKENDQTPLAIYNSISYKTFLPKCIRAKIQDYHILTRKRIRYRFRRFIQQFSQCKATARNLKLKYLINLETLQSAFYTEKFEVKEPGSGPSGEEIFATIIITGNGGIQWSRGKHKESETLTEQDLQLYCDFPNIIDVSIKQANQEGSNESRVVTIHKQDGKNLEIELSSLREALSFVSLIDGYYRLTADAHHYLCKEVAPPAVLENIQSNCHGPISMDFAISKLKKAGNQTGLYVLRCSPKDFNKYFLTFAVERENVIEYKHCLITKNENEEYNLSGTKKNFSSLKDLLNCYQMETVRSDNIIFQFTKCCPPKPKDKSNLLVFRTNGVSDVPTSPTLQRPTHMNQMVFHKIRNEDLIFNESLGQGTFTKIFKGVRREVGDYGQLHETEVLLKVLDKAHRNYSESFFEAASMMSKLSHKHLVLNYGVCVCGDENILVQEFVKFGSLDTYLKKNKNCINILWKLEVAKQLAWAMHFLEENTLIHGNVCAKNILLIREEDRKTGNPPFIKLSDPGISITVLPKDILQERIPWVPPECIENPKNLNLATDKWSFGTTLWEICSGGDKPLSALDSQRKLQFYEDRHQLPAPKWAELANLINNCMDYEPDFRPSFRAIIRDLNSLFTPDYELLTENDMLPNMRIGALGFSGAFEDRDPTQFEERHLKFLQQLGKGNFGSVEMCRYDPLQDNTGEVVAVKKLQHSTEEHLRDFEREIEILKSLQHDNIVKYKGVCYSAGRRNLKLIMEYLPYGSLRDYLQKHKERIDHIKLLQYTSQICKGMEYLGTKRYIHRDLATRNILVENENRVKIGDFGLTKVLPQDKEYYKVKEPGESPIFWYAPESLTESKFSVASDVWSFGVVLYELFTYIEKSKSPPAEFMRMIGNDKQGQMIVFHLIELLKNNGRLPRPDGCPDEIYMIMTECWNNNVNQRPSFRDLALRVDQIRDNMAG

| Compound | Ki (JAK-2) [nM] | Ki (JAK-3) [nM] |
| --- | --- | --- |
| c1ccc2c(c1)NC(c1ccc(-n3cncn3)cc1)c1c[nH]c3nccc-2c13 (centres unmarked) [Compound 120] | > 2500 | > 2500 |
| Cc1cc(C2Nc3ccccc3-c3ccnc4[nH]cc2c34)sc1C (centres unmarked) [Compound 124] | 250 to 2500 | 250 to 2500 |
| COc1ccc(C2NC(=O)c3ccccc3-c3ccnc4[nH]cc2c34)cc1 (centres unmarked) [Compound 126] | > 2500 | > 2500 |
| O=C1NC(c2ccc(O)cc2F)c2c[nH]c3nccc(c23)-c2ccccc21 (centres unmarked) [Compound 127] | < 250 | 250 to 2500 |
| COc1ccc(C2NC(=O)c3ccccc3-c3ccnc4[nH]cc2c34)cc1C (centres unmarked) [Compound 129] | > 2500 | > 2500 |
| CCOC(=O)C1(c2ccc(OC)c(F)c2)Nc2ccccc2-c2ccnc3[nH]cc1c23 (centres unmarked) [Compound 130] | < 250 | 250 to 2500 |
| Clc1ccccc1COc1cccc(C2Nc3ccccc3-c3ccnc4[nH]cc2c34)c1 (centres unmarked) [Compound 131] | < 250 | 250 to 2500 |
| Cc1ccc(COc2ccccc2C2Nc3ccccc3-c3ccnc4[nH]cc2c34)cc1 (centres unmarked) [Compound 132] | > 2500 | > 2500 |
| Cc1cc(O)ccc1C1Nc2ccccc2-c2ccnc3[nH]cc1c23 (centres unmarked) [Compound 133] | < 250 | ≤ 250 |
| c1ccc2c(c1)NC(c1ccc3c(c1)CCO3)c1c[nH]c3nccc-2c13 (centres unmarked) [Compound 141] | < 250 | 250 to 2500 |
| COc1ccc(C2Nc3ccccc3-c3ccnc4[nH]cc2c34)c(OC)c1 (centres unmarked) [Compound 142] | > 2500 | > 2500 |
| c1ccc(-c2onc3ccc(C4Nc5ccccc5-c5ccnc6[nH]cc4c56)cc23)cc1 (centres unmarked) [Compound 143] | > 2500 | > 2500 |
| c1ccc2c(c1)NC(c1ccc3nsnc3c1)c1c[nH]c3nccc-2c13 (centres unmarked) [Compound 144] | 250 to 2500 | > 2500 |
| c1ccc(Oc2ccc(C3Nc4ccccc4-c4ccnc5[nH]cc3c45)cc2)cc1 (centres unmarked) [Compound 147] | > 2500 | > 2500 |
| CCOc1cc(C2Nc3ccccc3-c3ccnc4[nH]cc2c34)ccc1O (centres unmarked) [Compound 148] | 250 to 2500 | 250 to 2500 |
| O=C1Nc2ccccc2-c2ccnc3[nH]cc(c23)C1c1ccc(O)c(F)c1 (centres unmarked) [Compound 150] | < 250 | ≤ 250 |

Next, values leading:

| Ki (JAK-2) [nM] | Ki (JAK-3) [nM] | Compound |
| --- | --- | --- |
| > 2500 | > 2500 | CS(=O)(=O)c1ccc(C2Nc3ccccc3-c3ccnc4[nH]cc2c34)cc1 (centres unmarked) [Compound 121] |
| > 2500 | > 2500 | [O-][n+]1ccc(C2Nc3ccccc3-c3ccnc4[nH]cc2c34)cc1 (centres unmarked) [Compound 122] |
| < 250 | ≤ 250 | OB(O)c1ccc(C2Nc3ccccc3-c3ccnc4[nH]cc2c34)cc1 (centres unmarked) [Compound 128] |
| 250 to 2500 | 250 to 2500 | FC(F)(F)Oc1ccc(C2Nc3ccccc3-c3ccnc4[nH]cc2c34)cc1 (centres unmarked) [Compound 134] |
| < 250 | ≤ 250 | COc1ccc(C2Nc3ccccc3-c3ccnc4[nH]cc2c34)cc1 (centres unmarked) [Compound 135] |
| > 2500 | > 2500 | FC(F)(F)c1ccc(C2Nc3ccccc3-c3ccnc4[nH]cc2c34)cc1 (centres unmarked) [Compound 136] |
| 250 to 2500 | > 2500 | Cc1ccc(C2Nc3ccccc3-c3ccnc4[nH]cc2c34)cc1 (centres unmarked) [Compound 137] |
| > 2500 | > 2500 | Cc1cc(C2Nc3ccccc3-c3ccnc4[nH]cc2c34)ccc1F (centres unmarked) [Compound 138] |
| 250 to 2500 | 250 to 2500 | O=[N+]([O-])c1cc(C2Nc3ccccc3-c3ccnc4[nH]cc2c34)ccc1O (centres unmarked) [Compound 139] |
| < 250 | ≤ 250 | Cc1cc(C2Nc3ccccc3-c3ccnc4[nH]cc2c34)ccc1O (centres unmarked) [Compound 140] |
| < 250 | 250 to 2500 | CC(C)Oc1ccc(C2Nc3ccccc3-c3ccnc4[nH]cc2c34)cc1 (centres unmarked) [Compound 145] |
| < 250 | ≤ 250 | CCCOc1ccc(C2Nc3ccccc3-c3ccnc4[nH]cc2c34)cc1 (centres unmarked) [Compound 146] |
